Experimental findings from US10167299B2, “1-(3-aminopropyl) substituted cyclic amine compounds, preparation method therefor, and pharmaceutical compositions and uses thereof” (SHANGHAI INSTITUTE OF MATERIA MEDICA, CHINESE ACADEMY OF …, priority 2013, dated 2019) are described below.

For the assay, the target named is CCR5 (Homo sapiens (Human), UniProt P51681). Put plainly: Calcium flux inhibition experiment. Conditions: for calcium influx inhibition effect in words, versus positive control compounds: conclusion from Table 1. The class given is cell-based. The text has this: Experiment apparatus: FlexStation II
Experiment materials: HEK293/CCR5-Gα16 cell line, Fluo-4calcium dye (fluorescent-4 calcium ion dye) and FlexStation instrument.
Experiment theory: Activation of the receptor can cause the activation of Gα16 protein, thereby activating phospholipase C (PLC) to generate IP3 and DAG by establishing CCR5 and Ga16 co-transfected cell line. IP3 can bind to IP3 receptors on the endoplasmic reticulum and mitochondria in a cell, which can cause the release of intracellular calcium. Thus, determination of changes in intracellular calcium can be used as a method to detect CCR5 activation state. Fluo-4/AM is a fluorescent probe indicator for calcium used to measure calcium ion. As a non-polar lipid-soluble compound, after it enters into cells, AM group is dissociated to release Fluo-4 under the effect of cell lipolysis enzyme. Fluo-4 is a polar molecule and not easy to go through the lipid bilayer membrane, therefore it can stay within the cells for a long time. Ultimately, the level of activated Ga protein can be reflected by measuring the excited fluorescence intensity. If the screened compound can activate CCR5, it can greatly increase the calcium flux reaction; on the contrary, if the screened compound can antagonize CCR5, it can greatly reduce calcium flux reaction.
1. HEK293 cells which can stably express CCR5 were inoculated in a 96-well plate and incubated overnight.
2. The medium in each well into which cells were innoculated was removed and 40 μl/well of freshly prepared dye was added. The plate was placed in a 37° C. incubator and incubated for 40 minutes at constant temperature.
3. The medicament to be determined was diluted with calcium buffer to eight concentration gradients, which is 1×10^−4 M, 1×10^−5 M, 1×10^−6 M, 1×10^−7 M, 1×10^−8 M, 1×10^−9 M, 1×10^−10 M, and 1×10^−11 M, respectively, and homogeneously mixed.
4. The dye was removed. Freshly prepared calcium buffer was used to wash for one time, 50 μl of calcium buffer was added.
5. FlexStation II was used for detection. 25 μl of calcium buffer containing the medicament to be determined was added automatically from the 15th second.
Background: A change in cytosolic calcium serves as a functional read-out for many receptors and channels.

[1] abbreviates: HEK293/CCR5-Gα16 cell line, calcium flux, read-out: CCR5 IC50.

Where two headings read alike, the source gives them in different places.

Sequence of CCR5 (P51681 whole entry): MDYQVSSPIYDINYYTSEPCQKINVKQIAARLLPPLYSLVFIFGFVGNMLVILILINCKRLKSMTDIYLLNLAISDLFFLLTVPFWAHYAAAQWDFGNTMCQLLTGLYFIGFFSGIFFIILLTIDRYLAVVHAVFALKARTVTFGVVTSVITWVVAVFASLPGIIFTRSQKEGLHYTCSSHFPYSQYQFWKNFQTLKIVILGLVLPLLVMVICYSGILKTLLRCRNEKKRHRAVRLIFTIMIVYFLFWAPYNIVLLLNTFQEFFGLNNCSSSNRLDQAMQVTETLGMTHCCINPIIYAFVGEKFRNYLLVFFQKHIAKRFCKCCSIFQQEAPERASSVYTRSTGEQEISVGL

Consider `CC(=O)N1CCc2c(nc(C)n2C2CC3CCC(C2)N3CC[C@H](NC(=O)C2CCC(F)(F)CC2)c2ccsc2)C1` (stereo partly drawn) [Compound 42, 4,4-difluoro-N-{(1S)-1-(thiophen-3-yl)-3-[(3-endo)-3-(5-acetyl-2-methyl-4,5,6,7-tetrahydro-1H-imidazo[4,5-c]pyridin-1-yl)-8-azabicyclo[3.2.1]octane-8-yl]propyl}cyclohexane-1-carboxamide], for which the IC50 under setting [1] came to 15.9 nM.
As for `Cc1nc2c(n1C1CC3CCC(C1)N3CC[C@H](NC(=O)C1CCC(F)(F)CC1)c1ccsc1)CCN(C(=O)C(C)C)C2` (stereo partly drawn) [Compound 43, 4,4-difluoro-N-{(1S)-1-(thiophen-3-yl)-3-[(3-endo)-3-(5-isobutyryl-2-methyl-4,5,6,7-tetrahydro-1H-imidazo[4,5-c]pyridin-1-yl)-8-azabicyclo[3.2.1]octane-8-yl]propyl}cyclohexane-1-carboxamide], the half-inhibitory concentration (IC50) under setting [1] is 8.34 nM.
As for `CCc1ccc([C@H](CCN2C3CCC2CC(n2c(C)nnc2C(C)C)C3)NC(=O)C2CCCCC2)s1` (stereo partly drawn) [Compound 65, N-[(1S)-3-[exo-3-(3-isopropyl-5-methyl-4H-1,2,4-triazol-4-yl)-8-azabicyclo[3.2.1]octane-8-yl]-1-(5-ethylthiophen-2-yl)propyl]cyclohexane-1-carboxamide], the “calcium influx inhibition effect in words, versus positive control compounds” value was “better than the positive control compounds”. In addition, the IC50 under setting [1] was 1.62 nM.
On to `CCc1ccc([C@H](CCN2C3CCC2CC(n2c(C)nnc2C(C)C)C3)NC(=O)C2CCCC2)s1` (stereo partly drawn) [Compound 66], for which the “calcium influx inhibition effect in words, versus positive control compounds” value is “better than the positive control compounds”. Besides, under setting [1], the IC50 came out at 2.02 nM.
For the compound `COC(=O)c1ccc([C@H](CCN2C3CCC2CC(n2c(C)nnc2C(C)C)C3)NC(=O)C2CCC(F)(F)CC2)s1` (stereo partly drawn) [Compound 73, 4,4-difluoro-N-[(1S)-3-[exo-3-(3-isopropyl-5-methyl-4H-1,2,4-triazol-4-yl)-8-azabicyclo[3.2.1]octane-8-yl]-1-(5-methoxycarbonylthiophen-2-yl)propyl]cyclohexane-1-carboxamide], the IC50 is 8.23 nM.
In the case of `COC(=O)c1ccc([C@H](CCN2C3CCC2CC(n2c(C)nnc2C(C)C)C3)NC(=O)C2CCC(F)(F)CC2)s1` (stereo partly drawn) [Compound 88, 4,4-difluoro-N-[(1S)-3-[exo-3-(3-isopropyl-5-methyl-4H-1,2,4-triazol-4-yl)-8-azabicyclo[3.2.1]octane-8-yl]-1-(5-methoxycarbonylthiophen-2-yl)propyl]cyclohexane-1-carboxamide], the IC50 under setting [1] came to 9.26 nM.
As to `Cc1nnc(C(C)C)n1C1CC2CCC(C1)N2CC[C@H](NC(=O)C1CCCCC1)c1ccc(Cl)s1` (stereo partly drawn) [Compound 113, N-[(1S)-3-[exo-3-(3-isopropyl-5-methyl-4H-1,2,4-triazol-4-yl)-8-azabicyclo[3.2.1]octane-8-yl]-1-(5-chlorothiophen-2-yl)propyl]cyclohexane-1-carboxamide], the half-maximal inhibitory concentration (IC50) under setting [1] is 8.14 nM.
As to `Cc1nnc(C(C)C)n1C1CC2CCC(C1)N2CC[C@H](NC(=O)C1CCCC1)c1ccc(Cl)s1` (stereo partly drawn) [Compound 114, N-[(1S)-3-[exo-3-(3-isopropyl-5-methyl-4H-1,2,4-triazol-4-yl)-8-azabicyclo[3.2.1]octane-8-yl]-1-(5-chlorothiophen-2-yl)propyl]cyclopentane-1-carboxamide], under setting [1], the IC50 turned out to be 9.27 nM.
The same measure, in the same setting: with `Cc1nnc(C(C)C)n1C1CC2CCC(C1)N2CC[C@H](NC(=O)C1CCCCC1)c1nccs1` (stereo partly drawn) [Compound 116, N-[(1S)-3-[exo-3-(3-isopropyl-5-methyl-4H-1,2,4-triazol-4-yl)-8-azabicyclo[3.2.1]octane-8-yl]-1-(thiazol-2-yl)propyl]cyclohexane-1-carboxamide] the figure was 15.6 nM.
For `Cc1nnc(C(C)C)n1C1CC2CCC(C1)N2CC[C@H](NC(=O)C1CCCC1)c1nccs1` (stereo partly drawn) [Compound 117, N-[(1S)-3-[exo-3-(3-isopropyl-5-methyl-4H-1,2,4-triazol-4-yl)-8-azabicyclo[3.2.1]octane-8-yl]-1-(thiazol-2-yl)propyl]cyclopentane-1-carboxamide], the half-maximal inhibitory concentration (IC50) under setting [1] was 16.1 nM.
`CCCC(=O)N1CCc2c(nc(C)n2C2CC3CCC(C2)N3CC[C@H](NC(C)=O)c2nccs2)C1` (stereo partly drawn) [Compound 123, N-{(1S)-3-[(3-endo)-3-(5-n-butyryl-2-methyl-4,5,6,7-tetrahydro-1H-imidazo[4,5-c]pyridin-1-yl)-8-azabicyclo[3.2.1]octane-8-yl]-1-(thiazol-2-yl)-propyl}acetamide]: the “calcium influx inhibition effect in words, versus positive control compounds” value is reported as “better than the positive control compounds”. Further, the half-maximal inhibitory concentration (IC50) under setting [1] was 12.1 nM.
`CCC(=O)N[C@@H](CCN1C2CCC1CC(n1c(C)nc3c1CCN(C(C)=O)C3)C2)c1nccs1` (stereo partly drawn) [Compound 124, N-{(1S)-3-[(3-endo)-3-(5-acetyl-2-methyl-4,5,6,7-tetrahydro-1H-imidazo[4,5-c]pyridin-1-yl)-8-azabicyclo[3.2.1]octane-8-yl]-1-(thiazol-2-yl)-propyl}propanamide]: the “calcium influx inhibition effect in words, versus positive control compounds” value is given as “better than the positive control compounds”. The half-maximal inhibitory concentration (IC50) under setting [1] worked out at 11.2 nM.
For the compound `CC(=O)Nc1ccc([C@H](CCN2C3CCC2CC(n2c(C)nnc2C(C)C)C3)NC(=O)C2CCCCC2)s1` (stereo partly drawn) [Compound 138, N-[(1S)-3-[exo-3-(3-isopropyl-5-methyl-4H-1,2,4-triazol-4-yl)-8-azabicyclo[3.2.1]octane-8-yl]-1-(5-acetamidothiophen-2-yl)propyl]cyclohexane-1-carboxamide], the “calcium influx inhibition effect in words, versus positive control compounds” value was “comparable to the positive control compounds”. Under setting [1], the IC50 amounted to 9.75 nM.
For `CC(=O)Nc1ccc([C@H](CCN2C3CCC2CC(n2c(C)nnc2C(C)C)C3)NC(=O)C2CCCC2)s1` (stereo partly drawn) [Compound 139, N-[(1S)-3-[exo-3-(3-isopropyl-5-methyl-4H-1,2,4-triazol-4-yl)-8-azabicyclo[3.2.1]octane-8-yl]-1-(5-acetamidothiophen-2-yl)propyl]cyclopentane-1-carboxamide], the 50% inhibitory concentration (IC50) under setting [1] amounted to 12.3 nM.
Regarding `CNC(=O)c1ccc([C@H](CCN2C3CCC2CC(n2c(C)nnc2C(C)C)C3)NC(=O)C2CCCCC2)s1` (stereo partly drawn) [Compound 141, 5-[(1S)-1-(cyclohexaneformamido)-3-[exo-3-(3-isopropyl-5-methyl-4H-1,2,4-triazol-4-yl)-8-azabicyclo[3.2.1]octane-8-yl]-propyl]-N-methylthiophene-2carboxamide], the “calcium influx inhibition effect in words, versus positive control compounds” value is listed as “comparable to the positive control compounds”. The IC50 under setting [1] was 8.36 nM.
In the case of `CNC(=O)c1ccc([C@H](CCN2C3CCC2CC(n2c(C)nnc2C(C)C)C3)NC(=O)C2CCCC2)s1` (stereo partly drawn) [Compound 142, 5-[(1S)-1-(cyclopentaneformamido)-3-[exo-3-(3-isopropyl-5-methyl-4H-1,2,4-triazol-4-yl)-8-azabicyclo[3.2.1]octane-8-yl]-propyl]-N-methylthiophene-2carboxamide], the “calcium influx inhibition effect in words, versus positive control compounds” value is reported as “comparable to the positive control compounds”. For the same compound, the IC50 under setting [1] stood at 9.55 nM.
As for `CC(=O)N[C@@H](CCN1C2CCC1CC(n1c(C)nc3c1CCN(C(=O)C(C)C)C3)C2)c1ccc(C#N)s1` (stereo partly drawn) [Compound 143, N-{(1S)-3-[(3-endo)-3-(5-isobutyryl-2-methyl-4,5,6,7-tetrahydro-1H-imidazo[4,5-c]pyridin-1-yl)-8-azabicyclo[3.2.1]octane-8-yl]-1-(5-cyanothiophen-2-yl)-propyl}acetamide], the IC50 under setting [1] came to 13.9 nM.

The term IC50 denotes the concentration that gives 50% inhibition.
